Experimental data published in publication PMC7795662, “Alkaloids with Anti-Onchocercal Activity from Voacanga africana Stapf (Apocynaceae): Identification and Molecular Modeling” (Molecules, 2020).
pIC50: −log10 of the molar value. Like-named read-outs stand apart in the source and are kept apart here.

Experiments:
Onchocerca ochengi = system: Onchocerca ochengi; set-up: method as in earlier work; settings: from stem bark of V. africana; cited from earlier work
[1] = system: Monkey kidney epithelial cells (LLC-MK2); assay: Cytotoxicity on monkey kidney epithelial cells, microscopic; type: cell-based; settings: read-out: IC50 Monkey Kidney Cells (LLC-MK2)
Method: Monkey kidney epithelial cells (LLC-MK2) (ATCC, Manassas, VA, USA) were cultured at 37 °C in humidified air with 5% CO2 in a Hera Cell-150 incubator (Thermo Electron, Karlsruhe, Germany) until the cell layer was almost confluent. The cell suspension was dispensed into 96-well micro titer plates (200 µL/well) and kept in the incubator for 3–5 days for cells to grow and become fully confluent. These cells served as feeder layers for the Mf assays and were also used for cytotoxicity studies.
Cytotoxicity of the pure compounds with anti-onchocercal activities was assessed on LLC-MK2 cells, microscopically, on day 5 of the Mf assay. Living cells were flattened out and attached to the culture plate, while dead cells were rounded up and detached from the plate. The IC50 values for these cells were estimated from the morphological deformation data.

[2] = system: Onchocerca ochengi adult male worms; assay: O. ochengi adult male worm motility assay, primary and secondary screens; type: cell-based; settings: for inhibition at 30 µM: Onchocerca ochengi, 24 h, read-out: % Adult Male Worm Motility Reduction after 24 h
[3] = system: Onchocerca ochengi microfilariae; assay: O. ochengi microfilariae (Mf) motility assay, primary and secondary screens; type: cell-based; settings: for inhibition at 30 µM: 24 h, read-out: % Mf Motility Reduction after 24 h; for pIC50: read-out: IC50 Mf; for effect on motility of microfilariae (in words): dose-dependent manner; for SI Mf: selectivity index = IC50 on LLC-MK2 cells (CC50) / IC50 on parasites
Method: Briefly, Mf were prepared using the method described by Cho-Ngwa et al., with slight modifications. A few skin snips were obtained from different locations and incubated in aliquots of culture medium for 15 min, after which the emergent Mf were qualified and quantified using an inverted microscope and standard atlases. The leftover pieces of skin were shaved, rinsed, sterilized with 70% ethanol and sliced into thin slivers. The slivers were incubated in CCM for 2 h, and the emergent highly motile O. ochengi Mf were concentrated by centrifugation. The Mf were transferred to 96-well micro titer plates (15 Mf/100 μL/well) containing a fully confluent LLC-MK2 cell layer in 100 μL of CCM. This was monitored for viability and sterility for 24 h before addition of test and control compounds.
The biological assays were conducted in duplicate in the 96-well microtiter plates. The Mf were incubated with the drug for 120 h in a total of 200 μL of medium. Mf viability was assessed by microscopy once every day and motility inhibition scores were recorded. […] Motility inhibition correlates to drug activity. The positive control drug was amorcazine at 30 μM, and negative control was the diluent (DMSO).
Compounds showing 100% activity in the primary screens were re-tested as described under primary screens to determine the IC50 values. All assays were repeated at least once. The selectivity index (SI) of each extract was calculated as the ratio of the IC50 of the extract on the mammalian cell (termed CC50) to the IC50 on parasites.

[4] = system: Onchocerca ochengi adult female worms; assay: O. ochengi adult female worm viability, MTT/formazan assay; type: cell-based; settings: for killing at 30 µM: read-out: % Adult Female Worm Death after 120 h; for activity on adult female worms (in words): biochemical assessment at 30 μM; for IC100 Adult Female Worm: secondary screen
Method: (§1) The isolation of O. ochengi adult worms was performed as described previously by Cho-Ngwa et al.. Briefly, fresh pieces of umbilical cattle skin with palpable nodules bought from butchery in Douala, Cameroon were washed, drained and sterilized with 70% ethanol. The worms were carefully scraped out of the nodules as single masses and temporarily submerged in 1 mL complete culture medium, CCM [RPMI-1640 (Sigma-Aldrich, St. Louis, MO, USA) supplemented with 25 mM HEPES, 2 g/L sodium bicarbonate, 2 mM L-glutamine, 5% newborn calf serum (SIGMA, St. Louis, MO, USA), 150 units/mL penicillin, 150 µg/mL streptomycin and 0.5 µg/mL amphotericin B (SIGMA, St. Louis, MO, USA), pH 7.4)] using 24-well plates. The adult worms were incubated in the culture medium overnight in a CO2 incubator, during which period the male worms migrated out of the nodular masses. Only wells containing viable worms received treatment with test compounds. Damaged worms and worms from putrefied nodules were discarded. The viability of worms retained for the assay was ascertained by visual and microscopic examination of adult male worm motility using an inverted microscope.
(§2) The compounds were tested on […] at a single concentration of 30 μM, in duplicate wells. […] The female worms were removed and incubated in 500 μL of 0.5 μg/mL MTT for the last 30 min of incubation. Inhibition of formazan formation from MTT directly correlates with worm death. The worms were blotted on absorbent paper and observed visually for blue coloration against a white background. […] Auranofin at 10 μM, which had previously shown activity against O. ochengi adult worms and Mf, was used as a positive control, while negative control wells received the diluent, 2% DMSO only, previously shown to have no effect on parasite viability. The solvent DMSO (2%) was used as a negative control. […] Furthermore, the toxicity of DMSO decreases with dilution.
(§3) The pure compounds with 100% activity at primary screens were re-tested as described under primary screens, in order to determine the IC50 values. The IC50 assays were performed in triplicate and each experiment repeated for confirmation. The means of all activities at a concentration were calculated and used in the statistical analyses. GraphPadPrism version 6.0 (GraphPad Software, San Diego, CA, USA) was used to generate dose response curves from which the IC50 values were obtained.

[5] = system: Onchocerca ochengi adult male worms; assay: O. ochengi adult male worm motility assay, primary and secondary screens; type: cell-based; settings: for pIC50: read-out: IC50 Adult Male Worm; for effect on motility of adult male worms (in words): dose-dependent manner; for SI Adult Male Worm: selectivity index = IC50 on LLC-MK2 cells (CC50) / IC50 on parasites
Method: as §1, §2
Adult male worm motility was evaluated with the aid of an inverted microscope.
as §3

[6] = Primates, LLC-MK2, 120 h, cytotoxicity, day 5, estimated from morphological deformation
[7] = Onchocerca ochengi, primary screen, 30 μM
[8] = Onchocerca ochengi, secondary screen, motility

Row | Compound | pIC50 [1, 6] | inhibition at 30 µM [2] | pIC50 [3, 8] | effect on motility of microfilariae (in words) [3] | IC100 Mf ([3]; secondary screen) | SI Mf [3] | killing at 30 µM ([4]; Onchocerca ochengi, 120 h) | activity on adult female worms (in words) [4] | IC100 Adult Female Worm [4] | pIC50 ([5]; Onchocerca ochengi) | effect on motility of adult male worms (in words) [5] | IC100 Adult Male Worm ([5]; secondary screen) | SI Adult Male Worm [5] | inhibition at 30 µM ([3]; Onchocerca ochengi) | other results
1 | CC[C@H]1CC2CN3CCc4c([nH]c5ccc(OC)cc45)[C@](C(=O)OC)(C2)[C@H]13 (stereo in doubt) [Compound 2, voacangine] | ≤ 4.52 | 100% | 5.26 | inhibit the motility | 10 µM | 5.46 | 100% | moderately active | >30 µM | 5.04 | inhibit the motility | 20 µM | 3.30 | – | activity against Onchocerca ochengi (in words) (Onchocerca ochengi): showing activity; inhibition at 30 µM [3, 7]: 100%
2 | CC(=O)OC[C@H]1O[C@@H]([S-])[C@H](OC(C)=O)[C@@H](OC(C)=O)[C@@H]1OC(C)=O.CCP(CC)CC.[Au+] [Auranofin, reference compound] | – | – | – | – | – | – | – | – | – | – | – | – | – | – | % Adult Male Worm Motility Reduction after 24 h ([2]; positive control, 10 μM): 100%; % Mf Motility Reduction after 24 h ([3]; positive control, 10 μM): 100%; % Adult Female Worm Death after 120 h ([4]; positive control, 10 μM, % inhibition of formazan formation): 100%
3 | C/C=C1\CN(C)C2Cc3c([nH]c4ccccc34)[C@@H](c3cc4[nH]c5c(c4cc3OC)CCN3CC4C[C@H](CC)C3[C@@]5(C(=O)OC)C4)CC1C2C(=O)OC (stereo partly shown) [Compound 1, voacamine A] | ≤ 4.52 | 100% | 5.43 | inhibit the motility | 7.38 µM | 8.13 | 65% | moderately active | >30 µM | 5.35 | inhibit the motility | 8.90 µM | 6.74 | 100% | –
4 | COC(=O)[C@@]12C[C@@H]3C[C@H]([C@H](C)O)[C@@H]1N(CCc1c2[nH]c2ccc(OC)cc12)C3 [Compound 3, voacristine] | ≤ 4.52 | 100% | 5.36 | inhibit the motility | 8.68 µM | 6.91 | 50% | moderately active | >30 µM | 5.09 | inhibit the motility | 16.14 µM | 3.71 | – | inhibition at 30 µM [3, 7]: 100%
5 | CC[C@H]1C[C@@H]2CN3CCc4c([nH]c5ccccc45)[C@](C(=O)OC)(C2)[C@H]13 [Compound 4, coronaridine] | ≤ 4.52 | 100% | 5.38 | inhibit the motility | 8.42 µM | 7.13 | 50% | moderately active | >30 µM | 5.06 | inhibit the motility | 17.36 µM | 3.45 | – | inhibition at 30 µM [3, 7]: 100%
6 | CC[C@H]1C[C@@H]2C[C@H]3c4[nH]c5cc(OC)ccc5c4CC[N@@](C2)[C@@H]13 [Compound 5, tabernanthine] | – | 0% | – | almost inactive | – | – | 0% | almost inactive | – | – | almost inactive | – | – | 0% | –
7 | COc1ccc2[nH]c3c(c2c1)CCN1CC2CC3C1C([C@H](C)O)C2 (stereo partly shown) [Compound 6, iboxygaine] | – | 100% | – | inhibit the motility | 9.44 µM | 6.35 | 50% | moderately active | >30 µM | 5.04 | inhibit the motility | 18.14 µM | 3.30 | 100% | pIC50 ([1]; Primates, LLC-MK2, 120 h): ≤ 4.52; pIC50 ([3]; Onchocerca ochengi): 5.33
8 | C/C=C1/CN(C)C2Cc3c([nH]c4ccccc34)[C@@H](c3cc4[nH]c5c(c4cc3OC)CCN3CC4CC([C@H](C)O)C3[C@@]5(C(=O)OC)C4)CC1C2C(=O)OC (stereo partly shown) [Compound 8, voacorine] | – | 100% | – | inhibit the motility | 4.98 µM | 12.04 | 50% | moderately active | >30 µM | 5.46 | inhibit the motility | 6.90 µM | 8.69 | 100% | pIC50 ([1]; Primates, LLC-MK2, 120 h): ≤ 4.52; pIC50 ([3]; Onchocerca ochengi): 5.60
9 | CN1CCN(C(=S)Nc2ccc(Nc3ccc([N+](=O)[O-])cc3)cc2)CC1 [amocarzine, reference compound] | – | – | – | – | – | – | – | – | – | – | – | – | – | – | inhibition at 10 µM ([4]; Onchocerca ochengi, 120 h, read-out: inhibition of formazan formation in adult female worms): 100%
10 | Ivermectin [reference compound] | – | – | – | – | – | – | – | – | – | – | – | – | – | – | % Mf Motility Reduction after 24 h ([3]; positive control, 10 μg/mL): 100%
11 | voacamine [Compound 7] | – | – | – | inhibit the motility | 10 µM | – | – | moderately active | >30 µM | – | inhibit the motility | 10 µM | – | – | activity against Onchocerca ochengi (in words) (Onchocerca ochengi): showing activity; pIC50 ([1]; cytotoxicity, day 5, estimated from morphological deformation): ≤ 4.52; % Adult Male Worm Motility Reduction after 24 h ([2]; primary screen, 30 μM): 100%; % Mf Motility Reduction after 24 h ([3]; primary screen, 30 μM): 100%; pIC50 ([3]; secondary screen, motility): 5.60; % Adult Female Worm Death after 120 h ([4]; primary screen, 30 μM, corresponds to % inhibition of formazan formation): 65%; pIC50 ([5]; secondary screen, motility): 5.46
